Data from PubChem BioAssay AID328 (DTP/NCI, 2004).
Values joined by “and” are separate entries in the source; they are usually repeats but may differ in a detail not shown here. Identical values can stand only once. Toxic doses and inconclusive results are not listed. The calls were made as follows: active = survival T/C of 150% or more; inactive = T/C below 125% in these data.

Test system: BDF1 mice, P388 leukemia ip, median survival T/C
Experiment: NCI In Vivo Anticancer Drug Screen. Data for tumor model P388 Leukemia (intraperitoneal) in B6D2F1 (BDF1) mice
Conditions: endpoint: median survival time, higher = longer survival
Summary of the method: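 Steps: implant the tumour, treat one group with compound and another with vehicle, record survival, then divide treated by control.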

[1] = dose: 12.5 mg/kg/injection, schedule: Q01DX009 (ip), vehicle: saline with Tween-80
[2] = dose: 50.0 mg/kg/injection, schedule: Q04DX003 (ip), vehicle: saline with Tween-80
[3] = dose: 25.0 mg/kg/injection, schedule: Q01DX009 (ip), vehicle: Klucel (hydroxypropylcellulose) (HPC)
[4] = dose: 50.0 mg/kg/injection, schedule: Q01DX009 (ip), vehicle: Klucel (hydroxypropylcellulose) (HPC)
[5] = dose: 100.0 mg/kg/injection, schedule: Q01DX009 (ip), vehicle: Klucel (hydroxypropylcellulose) (HPC)
[6] = dose: 25.0 mg/kg/injection, schedule: Q01DX009 (ip), vehicle: saline with Tween-80
[7] = dose: 50.0 mg/kg/injection, schedule: Q01DX009 (ip), vehicle: saline with Tween-80
[8] = dose: 100.0 mg/kg/injection, schedule: Q01DX009 (ip), vehicle: saline with Tween-80
[9] = dose: 100.0 mg/kg/injection, schedule: Q04DX003 (ip), vehicle: saline with Tween-80
[10] = dose: 6.25 mg/kg/injection, schedule: Q01DX009 (ip), vehicle: saline with Tween-80
[11] = dose: 25.0 mg/kg/injection, schedule: Q04DX003 (ip), vehicle: saline with Tween-80
[12] = dose: 200.0 mg/kg/injection, schedule: Q01DX009 (ip), vehicle: saline with Tween-80
[13] = dose: 200.0 mg/kg/injection, schedule: Q04DX003 (ip), vehicle: saline with Tween-80
[14] = dose: 400.0 mg/kg/injection, schedule: Q04DX003 (ip), vehicle: saline with Tween-80
[15] = dose: 3.12 mg/kg/injection, schedule: Q04DX003 (ip), vehicle: saline with Tween-80
[16] = dose: 6.25 mg/kg/injection, schedule: Q04DX003 (ip), vehicle: saline with Tween-80

Measured: T/C

c1ccc(C2=C([P+](c3ccccc3)(c3ccccc3)c3ccccc3)CCN2)cc1
inactive: [1] 100 % of control

C/C(=N/N)c1ccc(Br)cc1
inactive: dose: 3.0 mg/kg/injection, schedule: Q01DX009 (ip), vehicle: saline with Tween-80 103 % of control | dose: 6.0 mg/kg/injection, schedule: Q01DX009 (ip), vehicle: saline with Tween-80 92 % of control | dose: 22.0 mg/kg/injection, schedule: Q04DX003 (ip), vehicle: saline with Tween-80 118 % of control | dose: 34.0 mg/kg/injection, schedule: Q04DX003 (ip), vehicle: saline with Tween-80 118 % of control and 122 % of control | [2] 122 % of control

Cc1ccc(SC2CC3CC2C2COCC32)cc1 (stereo unspecified)
inactive: [3] 86 % of control | [4] 95 % of control | [5] 104 % of control

N=c1ccn(C(=O)C2=Cc3ccccc3OC2)cc1
inactive: dose: 1.25 mg/kg/injection, schedule: Q01DX009 (ip), vehicle: saline with Tween-80 88 % of control and 112 % of control | dose: 2.5 mg/kg/injection, schedule: Q01DX009 (ip), vehicle: saline with Tween-80 96 % of control and 100 % of control | dose: 5.0 mg/kg/injection, schedule: Q01DX009 (ip), vehicle: saline with Tween-80 92 % of control and 100 % of control and 112 % of control | dose: 5.0 mg/kg/injection, schedule: Q04DX003 (ip), vehicle: saline with Tween-80 118 % of control | dose: 10.0 mg/kg/injection, schedule: Q04DX003 (ip), vehicle: saline with Tween-80 95 % of control | dose: 20.0 mg/kg/injection, schedule: Q04DX003 (ip), vehicle: saline with Tween-80 90 % of control

Cc1nc2nc(N)[nH]c(=O)c2[nH]1
inactive: [6] 112 % of control | [7] 124 % of control | [8] 104 % of control | [9] 109 % of control

COc1ccc(-c2c3c(cc4cc5c(cc24)OCO5)C(=O)OC3)cc1OC
inactive: dose: 0.25 mg/kg/injection, schedule: Q01DX009 (ip), vehicle: saline + alcohol 95 % of control | dose: 0.5 mg/kg/injection, schedule: Q01DX009 (ip), vehicle: saline + alcohol 88 % of control | dose: 1.0 mg/kg/injection, schedule: Q01DX009 (ip), vehicle: saline + alcohol 95 % of control | dose: 1.5 mg/kg/injection, schedule: Q01DX009 (ip), vehicle: saline + alcohol 104 % of control | dose: 2.0 mg/kg/injection, schedule: Q01DX009 (ip), vehicle: saline + alcohol 88 % of control | dose: 3.0 mg/kg/injection, schedule: Q01DX009 (ip), vehicle: saline + alcohol 93 % of control | dose: 4.0 mg/kg/injection, schedule: Q01DX009 (ip), vehicle: saline + alcohol 95 % of control | dose: 6.0 mg/kg/injection, schedule: Q01DX009 (ip), vehicle: saline + alcohol 111 % of control | dose: 8.0 mg/kg/injection, schedule: Q01DX009 (ip), vehicle: saline + alcohol 104 % of control | dose: 12.0 mg/kg/injection, schedule: Q01DX009 (ip), vehicle: saline + alcohol 101 % of control | dose: 24.0 mg/kg/injection, schedule: Q01DX009 (ip), vehicle: saline + alcohol 93 % of control | dose: 25.0 mg/kg/injection, schedule: Q01DX009 (ip), vehicle: saline + alcohol 94 % of control | dose: 50.0 mg/kg/injection, schedule: Q01DX009 (ip), vehicle: saline + alcohol 94 % of control | dose: 100.0 mg/kg/injection, schedule: Q01DX009 (ip), vehicle: saline + alcohol 97 % of control | dose: 200.0 mg/kg/injection, schedule: Q01DX009 (ip), vehicle: saline + alcohol 86 % of control

O=C1CCS(=O)(=O)c2ccccc21
inactive: [10] 101 % of control | [1] 117 % of control | [6] 105 % of control | [7] 98 % of control

O=C(O)c1ccc(Cl)cc1Nc1ccc(Cl)cc1
inactive: [11] 120 % of control | [2] 100 % of control | [9] 100 % of control

O=C1C(c2ccccc2)=S=C2C=CC=CN12
inactive: dose: 12.5 mg/kg/injection, schedule: Q01DX001 (ip), vehicle: saline with Tween-80 109 % of control | dose: 25.0 mg/kg/injection, schedule: Q01DX001 (ip), vehicle: saline with Tween-80 100 % of control | dose: 50.0 mg/kg/injection, schedule: Q01DX001 (ip), vehicle: saline with Tween-80 87 % of control | dose: 100.0 mg/kg/injection, schedule: Q01DX001 (ip), vehicle: saline with Tween-80 100 % of control

CC(O)C(NCNC(=O)C1=C(O)C2(O)C(=O)C3=C(O)c4c(O)cccc4C(C)(O)C3CC2C(N(C)C)C1=O)C(=O)O (stereo unspecified)
inactive: [8] 91 % of control | [12] 100 % of control | dose: 400.0 mg/kg/injection, schedule: Q01DX009 (ip), vehicle: saline with Tween-80 87 % of control

CCCCC(=O)/C=C/c1ccccc1
inactive: [7] 102 % of control | [8] 109 % of control | [12] 120 % of control

CN(C(=S)SSC(=S)N(C)c1ccccc1)c1ccccc1
inactive: [1] 98 % of control | [6] 99 % of control | [7] 100 % of control | [8] 92 % of control | dose: 200.0 mg/kg/injection, schedule: Q01DX001 (ip), vehicle: Klucel (hydroxypropylcellulose) (HPC) 91 % of control | dose: 400.0 mg/kg/injection, schedule: Q01DX001 (ip), vehicle: Klucel (hydroxypropylcellulose) (HPC) 95 % of control

C/C(Br)=C(/Br)C(=O)O
inactive: [7] 94 % of control | [8] 97 % of control | [12] 87 % of control

CN1C2Oc3ccccc3C1Oc1ccccc12
inactive: [7] 112 % of control | [8] 99 % of control | [12] 99 % of control

CCOC(=O)CCN(CCC(=O)OCC)C(C)C
inactive: [9] 100 % of control | [13] 100 % of control | [14] 100 % of control

O=C(C=C(C(F)(F)F)C(F)(F)F)c1ccc(Br)cc1
inactive: dose: 5.56 mg/kg/injection, schedule: Q01DX009 (ip), vehicle: other 113 % of control | dose: 8.33 mg/kg/injection, schedule: Q01DX009 (ip), vehicle: other 113 % of control | dose: 12.5 mg/kg/injection, schedule: Q01DX009 (ip), vehicle: other 109 % of control | dose: 18.7 mg/kg/injection, schedule: Q01DX009 (ip), vehicle: other 109 % of control

O=NN(CCCl)C(=O)c1cc(Cl)cc(Cl)c1
inactive: [11] 104 % of control | [2] 104 % of control | [9] 100 % of control and 118 % of control | [13] 100 % of control and 104 % of control | [14] 100 % of control

O=C1CC(SC(=S)C2CCCC2=O)C(=O)N1 (stereo unspecified)
inactive: [7] 100 % of control | [8] 110 % of control | [12] 89 % of control

Cc1c(C)c(CC#N)c(C)c(C)c1CC#N
inactive: [3] 91 % of control | [4] 91 % of control | [5] 87 % of control | dose: 100.0 mg/kg/injection, schedule: Q04DX003 (ip), vehicle: Klucel (hydroxypropylcellulose) (HPC) 92 % of control | dose: 200.0 mg/kg/injection, schedule: Q01DX009 (ip), vehicle: Klucel (hydroxypropylcellulose) (HPC) 91 % of control

CSc1cc(-c2ccc(Cl)cc2)s[s+]1
inactive: [15] 104 % of control | [10] 110 % of control | [16] 111 % of control | [1] 89 % of control | dose: 12.5 mg/kg/injection, schedule: Q04DX003 (ip), vehicle: saline with Tween-80 109 % of control | [6] 100 % of control | [11] 108 % of control | [7] 91 % of control | [2] 94 % of control

Clc1ccc(-c2ncc3cnccn23)cc1Cl
inactive: dose: 0.78 mg/kg/injection, schedule: Q04DX003 (ip), vehicle: saline with Tween-80 92 % of control | dose: 1.56 mg/kg/injection, schedule: Q01DX009 (ip), vehicle: saline with Tween-80 89 % of control | dose: 1.56 mg/kg/injection, schedule: Q04DX003 (ip), vehicle: saline with Tween-80 90 % of control | dose: 3.12 mg/kg/injection, schedule: Q01DX009 (ip), vehicle: saline with Tween-80 95 % of control | [15] 94 % of control | [10] 95 % of control | [16] 100 % of control | [1] 99 % of control | [6] 100 % of control | [7] 100 % of control

CCS(=O)C(C)(C)C (stereo unspecified)
inactive: [7] 102 % of control | [8] 102 % of control | [12] 102 % of control

O=C(NC1CCC1C(=O)O)OCc1ccccc1 (stereo unspecified)
inactive: dose: 100.0 mg/kg/injection, schedule: Q04DX002 (ip), vehicle: saline with Tween-80 101 % of control | dose: 200.0 mg/kg/injection, schedule: Q04DX002 (ip), vehicle: saline with Tween-80 104 % of control | dose: 400.0 mg/kg/injection, schedule: Q04DX002 (ip), vehicle: saline with Tween-80 110 % of control

O=C1CCC(NC2OC(=O)c3ccccc32)C(=O)O1 (stereo unspecified)
inactive: [7] 111 % of control | [8] 102 % of control | [12] 109 % of control
